Square brackets hold non-standard residues; d marks the D form. Peptide text beside a SMILES is read from it. * marks the point of attachment. Dolaproine = CO[C@@H]([C@@H]1CCCN1)[C@@H](C)C(=O)O; Dil = CC[C@H](C)[C@H](NC)[C@@H](CC(=O)O)OC; X1 = C[C@@H](N*)[C@@H](O)c1ccccc1; NMeV = CN[C@H](C(=O)O)C(C)C
How the values were obtained:
[1] = test system: HeLa KRas^V12 cells; assay: Macropinocytic uptake of fluorescently labeled non-binding FN domain, co-localization with TMR-dextran (doxycycline-inducible system); assay type: cell-based, human
Text: (§1) FIG. 2A and FIG. 2B show the uptake of the fluorescently-tagged monobody and MP marker in human PDAC MIA PaCa and HeLa or HeLa KRas^V12 cells. Co-localization of the fluorescently-tagged monobody (green) and MP marker (dextran, red) in. DAPI, blue. Boxed region is enlarged, inset.
(§2) To determine if non-binding FN domains could be internalized, a well-established doxycycline-inducible mutant KRas^V12 HeLa cell system (hereafter, HeLa KRas^V12) was used in which macropinocytosis is monitored by high-molecular-weight (70 kDa) tetramethyl-rhodamine labeled (TMR−) dextran.

[2] = test system: mutant KRas PDAC cell line MIA PaCa-2; assay: Macropinocytic uptake, co-localization with dextran; assay type: cell-based, human
Text: as §1, §2

[3] = test system: KPC 1203 cells; assay: as above; assay type: cell-based, mouse
[4] = test system: KMS11 WT Ras, L363 Mutant NRAS, and RPMI 8226 Mutant KRas cells; assay: Uptake of fluorescently-tagged monobody and MP marker in multiple myeloma cell lines; assay type: cell-based, human
Text: FIGS. 14A-14C show uptake of fluorescently-tagged monobody and MP marker in human multiple myeloma cancer cell lines. FIGS. 14A and 14B are images showing co-localization of the fluorescently-tagged monobody (red) and MP marker (dextran, green) in KMS11 WT Ras, L363 Mutant NRAS, and RPMI 8226 Mutant KRas cells. DAPI, blue.
The differential uptake was established not only in cell lines of solid tumors, but also in blood cancer such as multiple myeloma. […] Using a similar system to the HeLa KRas^V12 inducible system, we created an inducible KRas^V12 cell system in wild type KRas KMS11 multiple myeloma cells.

[5] = Ex vivo organ toxicity analysis (H&E, apoptotic markers, tubulin staining) of MIA PaCa tumor bearing mice; assay type: in vivo
Description: FIGS. 5A-5B show the enhanced toxicity of FN-MMAE (monobody) in oncogenic KRas cell lines in vivo. In FIG. 5A, established (100-150 mm^3) subcutaneous MiaPaCa and BxPC3 tumors were treated with, PBS (negative control), 0.2 mg/kg of MMAE alone, or 0.2 mg/kg of FN-MMAE non-binding protein conjugate on Days 0, 7, and 14 (yellow arrows). Tumor growth as assessed by volume was slower in FN-MMAE treated animals compared to MMAE treated alone. n=4 per treatment group. Error bars represent SEM of tumor volume.
FIGS. 6A-6B show ex vivo analysis and mode of action of MMAE.
To test the effects in vivo, a MIA PaCa-2 subcutaneous tumor model was used to compare the efficacy of PBS, MMAE, and FN-MMAE (FIG. 5A). After tumors were established, three injections of 0.2 mg/kg drug with respect to MMAE concentration was administered every 7 days. […] This highlights the specificity of reduced uptake by non-macropinocytic cells in relation to free drug, which contributes to the selective effect of the non-binding FN domain-drug conjugate.

SMILES | effect of macropinocytosis inhibitor on FN domain and dextran uptake [1] | effect of macropinocytosis inhibitor on uptake of dextran and FN-Cy5.5 [2] | effect of macropinocytosis inhibitor on uptake of dextran and FN-Cy5.5 [3] | effect of macropinocytosis inhibitor on FN-Cy5.5 uptake [4] | H&E of ex vivo organs ([5]; MIA PaCa tumor bearing mice) | tubulin staining ([5]; kidneys) | apoptotic marker expression (CC3, HMGB1, cleaved Parp1) ([5]; kidneys, compared to PBS)
CCN(c1nc(N)c(C(=O)NC(=N)N)nc1Cl)C(C)C [EIPA] | blocked both non-binding FN domain and dextran uptake | abolished uptake of both macromolecules | abolished uptake of both macromolecules | abolished |  |  | 
CC(Sc1nc2ccccc2[nH]1)C(=O)N/N=C/c1cc(Br)ccc1O (centres unmarked) [KH7] |  |  |  | abolished |  |  | 
CC[C@H](C)[C@@H]([C@@H](CC(=O)N1CCC[C@H]1[C@H](OC)[C@@H](C)C(=O)N[C@H](C)[C@@H](O)c1ccccc1)OC)N(C)C(=O)[C@@H](NC(=O)[C@@H](NC)C(C)C)C(C)C [MMAE, monomethyl auristatin E] (H-[NMeV]V[Dil][Dolaproine]-X1) |  |  |  |  | visual liver damage | drastically reduced | substantial increase in non-specific toxicity

Reference: US12642859B2, “Macropinocytosis selective monobody-drug conjugates” (priority 2020, dated 2026)
